From PMC12217463, “Functional and structural analyses of amino acid sequence variation in PDC β-lactamase reveal different mechanistic pathways toward cefiderocol resistance in Pseudomonas aeruginosa” (Antimicrobial Agents and Chemotherapy, 2025)
≈ marks a conversion by molar mass, not a printed value.

What was measured:
Test in all cases: MIC, broth microdilution
Format in all cases: cell-based
PAO1 + blaPDC A200T = details: Pseudomonas aeruginosa
Excerpt: (§1) We took advantage of a previously constructed and characterized laboratory collection of recombinant P. aeruginosa PAO1 isolates expressing different blaPDC variants, but specifically enriched for this work with additional variants, following the previously described methodology ([17]). […] The final collection comprised 40 recombinant isolates (20 in PAO1 and 20 in PAO ΔpiuC) producing the wild-type PDC-1 variant from PAO1 and 19 derivatives carrying specific amino acid substitutions previously associated with the development of resistance to ceftazidime/avibactam, ceftolozane/tazobactam, or cefiderocol: T70I, F121L, P153L, G156D, A200T, G202S, ΔG202-E219, G214R, P215L, P215S, ΔP215-G222, D217N, E219K, E219G, E219D, S226ins, L293P, F121L + E219K, and F121L + G222S.
(§2) The MICs of ceftazidime, ceftazidime/avibactam, ceftolozane/tazobactam, cefepime, and cefiderocol were determined in triplicate, for all isolates, by reference broth microdilution assays. Avibactam and tazobactam were fixed at 4 mg/L. All assays were performed using cation-adjusted Mueller-Hinton broth (CAMHB), except for cefiderocol, which was determined in all cases using iron-depleted CAMHB, prepared according to CLSI M100 guidelines ([40]). EUCAST v.15.0 clinical breakpoints and guidelines (http://www.eucast.org/clinical_breakpoints/) were used for reference purposes. Reference strains Escherichia coli ATCC 25922, Klebsiella pneumoniae ATCC 700603, and P. aeruginosa ATCC 27853 were used as controls.

PAO1 + blaPDC D217N = details: Pseudomonas aeruginosa
Excerpt: as §1, §2

PAO1 + blaPDC E219D = details: Pseudomonas aeruginosa
Excerpt: as §1, §2

PAO1 + blaPDC E219K = details: Pseudomonas aeruginosa
Excerpt: as §1, §2

[1] = tested on: PAO1 + blaPDC F121L + E219K; details: Pseudomonas aeruginosa
Excerpt: as §1, §2

PAO1 + blaPDC F121L = details: Pseudomonas aeruginosa
Excerpt: as §1, §2

PAO1 + blaPDC G156D = details: Pseudomonas aeruginosa
Excerpt: as §1, §2

PAO1 + blaPDC G202S = details: Pseudomonas aeruginosa
Excerpt: as §1, §2

PAO1 + blaPDC G214R = details: Pseudomonas aeruginosa
Excerpt: as §1, §2

PAO1 + blaPDC L293P = details: Pseudomonas aeruginosa
Excerpt: as §1, §2

PAO1 + blaPDC P153L = details: Pseudomonas aeruginosa
Excerpt: as §1, §2

PAO1 + blaPDC P215L = details: Pseudomonas aeruginosa
Excerpt: as §1, §2

PAO1 + blaPDC P215S = details: Pseudomonas aeruginosa
Excerpt: as §1, §2

PAO1 + blaPDC S226ins = details: Pseudomonas aeruginosa, avibactam and tazobactam fixed at 4 mg/L, FDC in iron-depleted CAMHB
Excerpt: as §1, §2

PAO1 + blaPDC T70I = details: Pseudomonas aeruginosa
Excerpt: as §1, §2

PAO1 + blaPDC ∆P215-G222 = details: Pseudomonas aeruginosa, avibactam and tazobactam fixed at 4 mg/L, FDC in iron-depleted CAMHB
Excerpt: as §1, §2

PAO1 + blaPDC-1 (WT) = details: Pseudomonas aeruginosa, avibactam and tazobactam fixed at 4 mg/L, FDC in iron-depleted CAMHB
Excerpt: as §1, §2

PAO1 = details: Pseudomonas aeruginosa; PAO1 wild type, no plasmid-borne PDC; avibactam and tazobactam fixed at 4 mg/L; FDC in iron-depleted CAMHB
Excerpt: as §1, §2

## CC(C)(O/N=C(\C(=O)N[C@@H]1C(=O)N2C(C(=O)[O-])=C(C[N+]3(CCNC(=O)c4ccc(O)c(O)c4Cl)CCCC3)CS[C@H]12)c1csc(N)n1)C(=O)O [FDC, cefiderocol]
PAO1 + blaPDC A200T
  MIC: 0.5 mg/L (≈ 0.665 µM)
PAO1 + blaPDC D217N
  MIC: 0.5 mg/L (≈ 0.665 µM)
PAO1 + blaPDC E219D
  MIC: 0.5 mg/L (≈ 0.665 µM)
PAO1 + blaPDC E219K
  MIC: 4 mg/L (≈ 5.32 µM)
[1]
  MIC: 4 mg/L (≈ 5.32 µM)
PAO1 + blaPDC F121L
  MIC: 0.5 mg/L (≈ 0.665 µM)
PAO1 + blaPDC G156D
  MIC: 0.5 mg/L (≈ 0.665 µM)
PAO1 + blaPDC G202S
  MIC: 0.5 mg/L (≈ 0.665 µM)
PAO1 + blaPDC G214R
  MIC: 1 mg/L (≈ 1.33 µM)
PAO1 + blaPDC L293P
  MIC: 4 mg/L (≈ 5.32 µM)
PAO1 + blaPDC P153L
  MIC: 0.5 mg/L (≈ 0.665 µM)
PAO1 + blaPDC P215L
  MIC: 0.5 mg/L (≈ 0.665 µM)
PAO1 + blaPDC P215S
  MIC: 0.5 mg/L (≈ 0.665 µM)
PAO1 + blaPDC S226ins
  MIC: 0.5 mg/L
PAO1 + blaPDC T70I
  MIC: 0.5 mg/L (≈ 0.665 µM)
PAO1 + blaPDC ∆P215-G222
  MIC: 2 mg/L
PAO1 + blaPDC-1 (WT)
  MIC: 0.25 mg/L
PAO1
  MIC: 0.125 mg/L
